# Measurements taken from patent US20070275968A1, “Substituted Biphenyl Derivative” (priority 2004, published 2007).
# pIC50: −log10 of the molar value.
# What was measured:
# NRK-49F cells = assay: Collagen synthesis inhibition test; assay type: cell-based; settings: Rattus norvegicus, 25 ng/mL TGF-β added, cultured about 44 hr, 3H-labeled proline taken into collagen, no TGF-β = 100% inhibition, no test compound = 0% inhibition, read-out: Collagen synthesis inhibiting activity IC50
# Protocol: Collagen Synthesis Inhibition Test
# Collagen synthesis inhibiting activity was evaluated by the following assay.
# NRK-49F cells (Dainippon Pharmaceutical) are seeded into a 96-well plate. After becoming confluent, the medium is changed to a serum-free Dulbecco's modified MEM medium (Invitrogen) containing 5 μg/mL insulin, 5 μg/mL transferin, and 5 ng/mL selenious acid. One day later, the medium is changed to a serum-free Dulbecco's modified MEM medium (80 μl) containing 10 ng/mL IGF-II (Sigma) and 50 μg/mL L-ascorbic acid (Sigma), and a ten times concentration of a test compound (10 μl) is added thereto. Thirty minutes later, 25 ng/mL TGF-β (R&D System: 10 μL) is added to the medium, and the cells are cultured for about 44 hr. Twenty four hours before the termination of the culturing, ^3H-labeled proline (Amersham: 1 μCi) is added so as to be taken into collagen in the cells. When the culturing is terminated, 30% trichloroacetic acid (50 μL) is added to the medium. After leaving for 20 min, proteins are precipitated by centrifugation at 3000 rpm for 10 min. The supernatant is removed, and the residue is twice washed with 200 μL of a washing solution (ethanol:ether=3:1). The precipitate is air-dried, and the washing solution is sufficiently removed. After addition of 60 μL of a collagenase solution (2 mg/mL collagenase VII (Sigma), 50 mM Tris-HCl (pH 7.4), 5 mM CaCl2), the resulting mixture is treated at 37° C. for 2 hr to decompose collagen. Then, 90 μL of 15% trichloroacetic acid and 5% tannic acid are added thereto. The resulting mixture is left for 20 min and then centrifuged at 3000 rpm for 10 min. The supernatant (50 μL) is transferred to LumaPlate (PerkinElmer Lifescience) and is air-dried. Then, the amount of ^3H is measured by a Top Count.
SMILES,pIC50 (NRK-49F cells),melting point [°C]
"Cc1cccc(-c2n[nH]cc2-c2ccc(F)c(-c3cn(CCO)cn3)c2)n1 [Example 177, 2-(4-{2-Fluoro-5-[3-(6-methylpyridin-2-yl)-1H-pyrazol-4-yl]phenyl}-1H-imidazol-1-yl)ethanol]",7.30,248
"Cc1cccc(-c2n[nH]cc2-c2ccc(F)c(-c3c[nH]cn3)c2)n1 [Example 206, 2-{4-[4-Fluoro-3-(1H-imidazol-4-yl)phenyl]-1H-pyrazol-3-yl}-6-methylpyridine]",8.00,229 to 233
"Cc1cccc(-c2n[nH]cc2-c2ccc(F)c(-c3ccc(CN4CCOCC4)cn3)c2)n1 [Example 181, 4-[(6-{2-Fluoro-5-[3-(6-methylpyridin-2-yl)-1H-pyrazol-4-yl]phenyl}pyridin-3-yl)methyl]morpholine]",7.70,68 to 70
"Cc1cccc(-c2[nH]c(C(C)C)nc2-c2cccc(-c3ccc(S(C)(=O)=O)cc3)c2)n1 [Example 17, 2-{2-Isopropyl-4-[4′-(methylsulfonyl)-1,1′-biphenyl-3-yl]-1H-imidazol-5-yl}-6-methylpyridine]",6.46,104 to 106
"Cc1cccc(-c2nc(C(C)C)[nH]c2-c2ccc(F)c(-c3cnn(C)c3)c2)n1 [Example 110, 2-{5-[4-Fluoro-3-(1-methyl-1H-pyrazol-4-yl)phenyl]-2-isopropyl-1H-imidazol-4-yl}-6-methylpyridine]",7.30,77 to 97
"Cc1cccc(-c2n[nH]cc2-c2ccc(F)c(-c3c[nH]c(C(C)(C)O)n3)c2)n1 [Example 161, 2-(4-{2-Fluoro-5-[3-(6-methylpyridin-2-yl)-1H-pyrazol-4-yl]phenyl}-1H-imidazol-2-yl)propan-2-ol]",7.00,135 to 137
"Cc1cccc(-c2n[nH]cc2-c2ccc(F)c(-c3ccc(C(C)(C)O)cn3)c2)n1 [Example 160, 2-(6-{2-Fluoro-5-[3-(6-methylpyridin-2-yl)-1H-pyrazol-4-yl]phenyl}pyridin-3-yl)propan-2-ol]",6.72,169 to 172
"NS(=O)(=O)c1ccc(-c2cc(-c3c[nH]nc3-c3ccccn3)ccc2F)cc1 [Example 202, 2′-Fluoro-5′-(3-pyridin-2-yl-1H-pyrazol-4-yl)-1,1′-biphenyl-4-sulfonamide]",6.54,128
"Cc1cccc(-c2n[nH]cc2-c2ccc(F)c(-c3cc[nH]c3)c2)n1 [Example 189, 2-{4-[4-Fluoro-3-(1H-pyrrol-3-yl)phenyl]-1H-pyrazol-3-yl}-6-methylpyridine]",7.70,162 to 164

# Other lines, results leading:
pIC50 (NRK-49F cells),melting point [°C],SMILES
7.40,88 to 90,"Cc1cccc(-c2n[nH]cc2-c2ccc(F)c(-c3ccc(N4CCOCC4)cn3)c2)n1 [Example 179, 4-(6-{2-Fluoro-5-[3-(6-methylpyridin-2-yl)-1H-pyrazol-4-yl]phenyl}pyridin-3-yl)morpholine]"
7.10,107 to 109,"Cc1cccc(-c2n[nH]cc2-c2ccc(F)c(-c3ccc4c(c3)CCS4(=O)=O)c2)n1 [Example 146, 2-{4-[3-(1,1-Dioxido-2,3-dihydro-1-benzothien-5-yl)-4-fluorophenyl]-1H-pyrazol-3-yl}-6-methylpyridine]"
8.00,205,"Cc1cccc(-c2nc[nH]c2-c2ccc(F)c(-c3cnn(C)c3)c2)n1 [Example 121, 2-{5-[4-Fluoro-3-(1-methyl-1H-pyrazol-4-yl)phenyl]-1H-imidazol-4-yl}-6-methylpyridine]"
6.64,119 to 123,"Cc1cccc(-c2[nH]c(C(C)C)nc2-c2ccc(F)c(-c3ccc4c(c3)CCS4(=O)=O)c2)n1 [Example 125, 2-{4-[3-(1,1-Dioxido-2,3-dihydro-1-benzothien-5-yl)-4-fluorophenyl]-2-isopropyl-1H-imidazol-5-yl}-6-methylpyridine]"
7.15,268 to 270,"Cc1cccc(-c2[nH]c(C(C)C)nc2-c2ccc(F)c(-c3c[nH]cn3)c2)n1 [Example 137, 2-{4-[4-Fluoro-3-(1H-imidazol-4-yl)phenyl]-2-isopropyl-1H-imidazol-5-yl}-6-methylpyridine]"
7.40,115 to 118,"Cc1cccc(-c2n[nH]cc2-c2ccc(F)c(-c3ccc(S(N)(=O)=O)cc3)c2)n1 [Example 190, 2′-Fluoro-5′-[3-(6-methylpyridin-2-yl)-1H-pyrazol-4-yl]-1,1′-biphenyl-4-sulfonamide]"
7.30,219 to 220,"Cc1cccc(-c2n[nH]cc2-c2ccc(F)c(-c3c[nH]c(CCO)n3)c2)n1 [Example 209, 2-(4-{2-Fluoro-5-[3-(6-methylpyridin-2-yl)-1H-pyrazol-4-yl]phenyl}-1H-imidazol-2-yl)ethanol]"
8.00,155 to 156,"Cc1cccc(-c2n[nH]cc2-c2ccc(F)c(-c3cnn(C)c3)c2)n1 [Example 195, 2-{4-[4-Fluoro-3-(1-methyl-1H-pyrazol-4-yl)phenyl]-1H-pyrazol-3-yl}-6-methylpyridine]"
6.28,130 to 132,"Cc1cccc(-c2[nH]c(C(C)C)nc2-c2ccc(F)c(-c3ccc(C(=O)NC4CCOCC4)cc3)c2)n1 [Example 65, N-(Tetrahydropyran-4-yl)-4-{2-fluoro-5-[2-isopropyl-5-(6-methylpyridin-2-yl)-1H-imidazol-4-yl]phenyl}benzamide]"
